From ChEMBL document CHEMBL1201862, “PubChem BioAssay data set” (2004) come the findings set out here.

For test [1], the system named is Candida albicans. The experiment in a line: antifungal activity against resistant Candida strain – CaCi-8, fluconazole, Alamar Blue, dry powder, dose response (AID 488807). Type of test: functional, organism-based. On the technique in general: The colour change of resazurin is a common sign of viable cells or microbes.
Test [2] deals with Escherichia coli. Nature of the test: microbe, parasite or virus in culture.
The test system of test [3] is Escherichia coli. Nature of the test: microbe, parasite or virus in culture. This is another data set of the same source.
Test [4] concerns the target 5-hydroxytryptamine receptor 5A (Homo sapiens, UniProt P47898). Nature of the test: Counterscreen for agonists of OPRM1-OPRD1 heterodimerization: luminescence-based cell-based high throughput dose response assay to identify agonists of 5-hydroxytryptamine (serotonin) 5A receptor (HTR5A). [Related pubchem assays (depositor defined):AID504326, AID504355, AID504692, AID504904, AID504905]. Type of test: functional. A general note: Counterscreens check selectivity or assay interference.

In test [5] the target is Delta-type opioid receptor (Homo sapiens, UniProt P41143). The experiment in a line: Counterscreen for agonists of heterodimerization of the mu 1 (OPRM1) and delta 1 (OPRD1) opioid receptors: Luminescence-based cell-based high throughput dose response assay to identify agonists of OPRD1 homodimerization. [Related pubchem assays (depositor defined):AID504326, AID504355, AID504692, AID504904, AID504905]. Type of test: functional.
Delta-type opioid receptor, sequence (P41143 whole entry): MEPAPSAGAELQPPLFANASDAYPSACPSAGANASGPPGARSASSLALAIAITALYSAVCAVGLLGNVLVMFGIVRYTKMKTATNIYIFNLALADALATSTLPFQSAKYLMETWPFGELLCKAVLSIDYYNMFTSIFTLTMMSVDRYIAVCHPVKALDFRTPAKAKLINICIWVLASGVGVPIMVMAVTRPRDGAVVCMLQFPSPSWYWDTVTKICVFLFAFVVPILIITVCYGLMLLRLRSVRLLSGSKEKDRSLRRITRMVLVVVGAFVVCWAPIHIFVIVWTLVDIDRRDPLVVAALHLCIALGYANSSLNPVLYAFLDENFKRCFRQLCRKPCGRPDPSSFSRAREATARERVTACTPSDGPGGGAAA

A further test deals with Mu-type opioid receptor (Homo sapiens, UniProt P35372). The experiment in a line: Counterscreen for agonists of heterodimerization of the mu 1 (OPRM1) and delta 1 (OPRD1) opioid receptors: Luminescence-based cell-based high throughput dose response assay to identify agonists of OPRM1 homodimerization. Type of test: functional.
Mu-type opioid receptor, sequence (P35372 whole entry): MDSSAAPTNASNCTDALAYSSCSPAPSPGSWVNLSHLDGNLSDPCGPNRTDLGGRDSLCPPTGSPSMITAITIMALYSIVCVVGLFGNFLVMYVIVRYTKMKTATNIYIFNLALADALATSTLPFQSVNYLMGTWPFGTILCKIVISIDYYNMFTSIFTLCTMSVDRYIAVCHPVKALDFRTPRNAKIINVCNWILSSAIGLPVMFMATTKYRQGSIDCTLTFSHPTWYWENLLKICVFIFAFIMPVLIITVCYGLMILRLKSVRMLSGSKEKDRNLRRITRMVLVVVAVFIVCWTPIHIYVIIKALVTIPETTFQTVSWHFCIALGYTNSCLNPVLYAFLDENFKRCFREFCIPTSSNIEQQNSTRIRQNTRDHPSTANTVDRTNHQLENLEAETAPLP
Test [6] has as its system Candida albicans. The experiment in a line: C. albicans growth inhibition with fluconazole – CaCi-2 strain, Alamar Blue, dry powder, set 4, dose response (AID 488943). Type of test: functional, organism-based.
Test [7] has as its system Candida albicans. Nature of the test: Candida growth reduction in fluconazole presence – CaCi-2 strain, Alamar Blue, dry powder, set 2, antifungal resistance reversal project, dose response (AID 488930). Type of test: functional, organism-based.
For test [8], the system named is Candida albicans. The experiment in a line: single-agent antifungal toxicity in C. albicans – CaCi-2 strain, Alamar Blue, dry powder, set 2, counter-screen for antifungal drug resistance project, dose response (AID 488893). Type of test: functional, organism-based.
The subject of test [9] is Candida albicans. The experiment in a line: resistant Candida growth with fluconazole co-treatment – CaCi-8 strain, Alamar Blue, dry powder, set 2, dose response (AID 488909). Type of test: functional, organism-based.
For test [10], the system named is Candida albicans. The experiment in a line: fluconazole-resistant Candida strain growth inhibitors – CaCi-8 strain, dry powder, set 4, dose response (AID 488950). Type of test: functional, organism-based.
A short description of test [11]: rise of 2N DNA cells, HeLa – IC50, dose response (AID 1117349). Type of test: functional, cell-based.
The subject of test [12] is A-375. Nature of the test: MITF: Counter assay: A375 proliferation Measured in Cell-Based System Using Plate Reader - 2084-03_Inhibitor_Dose_DryPowder_Activity. [Related pubchem assays (depositor defined):AID488944]. Type of test: functional. The conditions noted are these: Homo sapiens.
For test [13], the system named is A-375. The experiment in a line: proliferation inhibition in MITF-low A375 cells – cell-based, cherry-pick samples, set 2, counter-screen for MITF modulator project, dose response (AID 540335). Type of test: functional. The conditions noted are these: Homo sapiens.
A short description of test [14]: rise of 4N DNA cells, HeLa – IC50, dose response (AID 1117351). Type of test: functional, cell-based.
The target in test [15] is Glucose-6-phosphate 1-dehydrogenase (Homo sapiens, UniProt P11413). Nature of the test: inhibition of Homo sapiens G6PD, dose series – biochemical, fluorescence, selectivity assay for P. falciparum G6PD inhibitor project, dose response (AID 504792). Type of test: functional.
Glucose-6-phosphate 1-dehydrogenase, sequence (P11413 whole entry): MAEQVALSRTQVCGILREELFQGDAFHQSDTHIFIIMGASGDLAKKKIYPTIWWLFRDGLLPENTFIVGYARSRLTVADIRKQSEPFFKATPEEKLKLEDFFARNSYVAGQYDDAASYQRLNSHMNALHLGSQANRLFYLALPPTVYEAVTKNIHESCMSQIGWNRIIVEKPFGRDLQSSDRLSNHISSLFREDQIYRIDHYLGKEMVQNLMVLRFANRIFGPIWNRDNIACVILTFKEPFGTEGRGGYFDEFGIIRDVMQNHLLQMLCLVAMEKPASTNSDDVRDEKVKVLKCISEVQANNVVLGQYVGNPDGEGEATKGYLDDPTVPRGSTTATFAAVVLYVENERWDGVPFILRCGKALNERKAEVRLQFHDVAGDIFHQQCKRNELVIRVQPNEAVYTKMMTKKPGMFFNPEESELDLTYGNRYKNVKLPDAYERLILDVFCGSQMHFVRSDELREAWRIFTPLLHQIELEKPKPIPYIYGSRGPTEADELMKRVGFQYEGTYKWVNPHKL
Test [16] can be described thus: reduced cellular PGC1a acetyl-lysine signal – cell-based, cherry-picked samples, dose response (AID 720514).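 Note: potency may reflect raised or lowered acetylation signal.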 Type of test: functional.

The structures appear in SMILES notation. Calls of active or inactive are those of the source.

5-hydroxytryptamine receptor 5A, sequence (P47898 whole entry): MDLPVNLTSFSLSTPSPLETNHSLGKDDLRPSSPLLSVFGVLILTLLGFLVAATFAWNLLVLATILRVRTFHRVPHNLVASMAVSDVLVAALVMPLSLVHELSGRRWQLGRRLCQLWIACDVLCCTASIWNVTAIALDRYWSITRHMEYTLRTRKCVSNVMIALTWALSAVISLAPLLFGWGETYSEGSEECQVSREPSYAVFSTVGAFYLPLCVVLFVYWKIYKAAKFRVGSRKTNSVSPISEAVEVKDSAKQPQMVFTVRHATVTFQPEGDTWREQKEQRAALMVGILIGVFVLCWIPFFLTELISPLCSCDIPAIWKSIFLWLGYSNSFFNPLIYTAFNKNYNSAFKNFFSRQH

The term AC50 denotes the concentration giving half of the maximal activity seen. As to `COC(=O)Cn1nc(-c2ccccc2)c2cc(Cl)ccc21`, the AC50 in the test with Candida albicans [1] is 9.53 µM (active).
In the case of `O=S(=O)(c1ccccc1)c1cnc(-c2cccnc2)nc1-c1ccc(Cl)cc1Cl`, the values for the AC50 with Escherichia coli [2] and in the test with Escherichia coli [3] were 150 µM (active) and 224 µM (active), respectively.
The EC50 is the midpoint of the concentration-response curve. For the compound `Cc1ccc2cc(C(c3nnnn3Cc3ccccc3)N3CCc4ccccc43)c(O)nc2c1` (configuration not stated), the EC50 (in test [4]; in test [5]; on Mu-type opioid receptor) was > 92.5 µM (inactive) throughout.
Consider `O=C(c1ccc(F)cc1)N1CCN(c2ccnc3cc(Cl)ccc23)CC1`, for which the AC50 is 1.33 µM (active) in the test on Candida albicans [6]; 0.57 µM (active) in the test on Candida albicans [7]; > 260 µM (inactive) in the test on Candida albicans [8]; 3.2 µM (active) in the test with Candida albicans [9]; 1.19 µM (active) with Candida albicans [10].
The term IC50 denotes the concentration needed to halve the response being measured. With `CCCCC1C(=O)N(c2ccccc2)N(c2ccc(O)cc2)C1=O` (configuration not stated) [OXYPHENBUTAZONE ANHYDROUS], the IC50 in test [11] is > 10 µM (inactive); in test [14] it was > 10 µM (inactive); in test [15], > 80 µM (inactive). The AC50 was > 35 µM (active) in the test on A-375 [12], > 35 µM (active) with A-375 [13] and 9.85 µM (active) in test [16].
